Reference: ChEMBL document CHEMBL4402510, “Caprazamycins: Promising lead structures acting on a novel antibacterial target MraY” (Eur J Med Chem, 2019)
≈ marks a conversion by molar mass, not a printed value. Each block holds one compound with its values, some of them ahead of it.

Columns and labels:
Enterococcus faecium = assay: Antibacterial activity against Enterococcus faecium SR7917 (VRE); type: functional
Staphylococcus aureus [1] = assay: Antibacterial activity against methicillin susceptible Staphylococcus aureus ATCC 29213; type: functional
Enterococcus faecalis [2] = assay: Antibacterial activity against Enterococcus faecalis SR7914 (VRE); type: functional
Staphylococcus aureus [3] = assay: Antibacterial activity against methicillin resistant Staphylococcus aureus SR3637; type: functional
Enterococcus faecalis [4] = assay: Antibacterial activity against Enterococcus faecalis ATCC 29212; type: functional
[5] = target: T1, Phospho-N-acetylmuramoyl-pentapeptide-transferase (Aquifex aeolicus (strain VF5), UniProt O66465); assay: Inhibition of MraY in Aquifex aeolicus
T1 sequence (O66465 whole entry): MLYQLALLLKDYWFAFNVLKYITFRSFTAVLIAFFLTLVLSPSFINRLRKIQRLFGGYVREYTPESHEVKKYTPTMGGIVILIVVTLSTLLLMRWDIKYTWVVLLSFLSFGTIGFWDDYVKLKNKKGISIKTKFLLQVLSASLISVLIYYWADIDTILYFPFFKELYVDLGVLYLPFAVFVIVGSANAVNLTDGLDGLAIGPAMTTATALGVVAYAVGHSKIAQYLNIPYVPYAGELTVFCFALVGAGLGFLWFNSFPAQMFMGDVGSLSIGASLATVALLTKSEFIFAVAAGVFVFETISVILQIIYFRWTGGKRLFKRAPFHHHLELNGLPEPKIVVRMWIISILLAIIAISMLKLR

[6] = target: T2, Phospho-N-acetylmuramoyl-pentapeptide-transferase (Bacillus subtilis (strain 168), UniProt Q03521); assay: Inhibition of MraY in Bacillus subtilis
T2 sequence (Q03521 whole entry): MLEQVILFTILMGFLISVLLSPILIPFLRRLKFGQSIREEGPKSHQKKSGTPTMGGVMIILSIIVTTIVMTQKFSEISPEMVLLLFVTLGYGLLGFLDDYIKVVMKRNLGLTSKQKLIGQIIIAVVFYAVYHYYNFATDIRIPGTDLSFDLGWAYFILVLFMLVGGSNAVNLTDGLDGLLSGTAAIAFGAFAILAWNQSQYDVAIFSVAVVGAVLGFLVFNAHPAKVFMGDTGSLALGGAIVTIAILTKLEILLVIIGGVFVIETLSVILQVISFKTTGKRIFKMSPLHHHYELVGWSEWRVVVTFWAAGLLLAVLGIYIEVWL

Escherichia coli = assay: Antibacterial activity against Escherichia coli expressing MraY; type: functional, organism-based

Compound: CCCCCCCCCCCCCCCC(=O)NC[C@@H]1CC[C@H]2C(C(=O)N1CCCNC(=N)N)[C@H]([C@H]1O[C@@H](n3ccc(=O)[nH]c3=O)[C@H](O)[C@@H]1O)ON2CCCN (single isomer, unassigned)
- MIC (Enterococcus faecium): 16 µg/mL (≈ 20.2 µM)
- MIC (Staphylococcus aureus [1]): > 64 µg/mL
- MIC (Enterococcus faecalis [2]): 16 µg/mL (≈ 20.2 µM)
- MIC (Staphylococcus aureus [3]): 16 µg/mL (≈ 20.2 µM)
- MIC (Enterococcus faecalis [4]): 16 µg/mL (≈ 20.2 µM)

- IC50 [5]: 400 µM
Compound: NC[C@H]1O[C@@H](O[C@@H](Cn2cc(CCCCCO)nn2)[C@H]2O[C@@H](n3ccc(=O)[nH]c3=O)[C@H](O)[C@@H]2O)[C@H](O)[C@@H]1O

- IC50 [6]: > 1000 µM
Compound: NC[C@H]1O[C@@H](O[C@@H](c2cn(CCCCCO)nn2)[C@H]2O[C@@H](n3ccc(=O)[nH]c3=O)[C@H](O)[C@@H]2O)[C@H](O)[C@@H]1O

Compound: CCCCCCCCCCCCCCCC(=O)NC[C@@H]1CC2[C@H](C(=O)N1CCCNC(=N)N)[C@@H]([C@H]1O[C@@H](n3ccc(=O)[nH]c3=O)[C@H](O)[C@@H]1O)ON2CCCN (single isomer, unassigned)
- MIC (Enterococcus faecium): 8 µg/mL (≈ 10.3 µM)
- MIC (Staphylococcus aureus [1]): 16 µg/mL (≈ 20.6 µM)
- MIC (Enterococcus faecalis [2]): 16 µg/mL (≈ 20.6 µM)
- MIC (Staphylococcus aureus [3]): 16 µg/mL (≈ 20.6 µM)
- MIC (Enterococcus faecalis [4]): 16 µg/mL (≈ 20.6 µM)

- IC50 (Escherichia coli): 30 µM
Compound: N/C=N/C[C@H]1O[C@@H](OC[C@H]2O[C@@H](n3ccc(=O)[nH]c3=O)[C@H](O)[C@@H]2O)[C@H](O)[C@@H]1O

- IC50 (Escherichia coli): > 1000 µM
Compound: NC[C@@H]1C[C@@H](O)[C@H](OC[C@H]2O[C@@H](n3ccc(=O)[nH]c3=O)[C@H](O)[C@@H]2O)O1

- IC50 [6]: > 1000 µM
Compound: NC[C@H]1O[C@@H](O[C@@H](c2cn(CCCn3ccnc3)nn2)[C@H]2O[C@@H](n3ccc(=O)[nH]c3=O)[C@H](O)[C@@H]2O)[C@H](O)[C@@H]1O

Compound: NC[C@H]1O[C@@H](O[C@@H](c2cn(CCCCCCCCCCOc3ccc(C(=O)c4ccccc4)cc3)nn2)[C@H]2O[C@@H](n3ccc(=O)[nH]c3=O)[C@H](O)[C@@H]2O)[C@H](O)[C@@H]1O
- IC50 [6]: 125 µM

- MIC50 (Escherichia coli): > 100 µg/mL
Compound: CCCCCCCCCCCCCCCC(=O)O[C@H]1CN(C)[C@@H]([C@H](O)[C@H]2O[C@@H](n3ccc(=O)[nH]c3=O)[C@H](O)[C@@H]2O)C(=O)N(C)[C@@H]1C(=O)O

- IC50 [5]: 40 µM
Compound: NC[C@H]1O[C@@H](O[C@@H](Cc2cn(CCCCCCCCCCO)nn2)[C@H]2O[C@@H](n3ccc(=O)[nH]c3=O)[C@H](O)[C@@H]2O)[C@H](O)[C@@H]1O

- IC50 (Escherichia coli): 130 µM
Compound: CCCCCCNC[C@H]1O[C@@H](OC[C@H]2O[C@@H](n3ccc(=O)[nH]c3=O)[C@H](O)[C@@H]2O)[C@H](O)[C@@H]1O

- IC50 [6]: 140 µM
Compound: CCCCCCCCCCn1cc([C@H](O[C@@H]2O[C@H](CN)[C@@H](O)[C@H]2O)[C@H]2O[C@@H](n3ccc(=O)[nH]c3=O)[C@H](O)[C@@H]2O)nn1

- IC50 (Escherichia coli): > 1000 µM
Compound: C[N+](C)(C)C[C@H]1O[C@@H](OC[C@H]2O[C@@H](n3ccc(=O)[nH]c3=O)[C@H](O)[C@@H]2O)[C@H](O)[C@@H]1O

- IC50 [6]: 150 µM
Compound: NC[C@H]1O[C@@H](O[C@@H](c2cn(CCCCCN3CCCCC3)nn2)[C@H]2O[C@@H](n3ccc(=O)[nH]c3=O)[C@H](O)[C@@H]2O)[C@H](O)[C@@H]1O

- IC50 [5]: 400 µM
Compound: NC[C@H]1O[C@@H](O[C@@H](Cc2cn(CCCCCO)nn2)[C@H]2O[C@@H](n3ccc(=O)[nH]c3=O)[C@H](O)[C@@H]2O)[C@H](O)[C@@H]1O

- IC50 [5]: 450 µM
Compound: NC[C@H]1O[C@@H](O[C@@H](Cn2cc(CCOCCOCCOCCOCCO)nn2)[C@H]2O[C@@H](n3ccc(=O)[nH]c3=O)[C@H](O)[C@@H]2O)[C@H](O)[C@@H]1O

- IC50 [5]: 75 µM
Compound: NC[C@H]1O[C@@H](O[C@@H](Cn2cc(CCCCCCCCCCO)nn2)[C@H]2O[C@@H](n3ccc(=O)[nH]c3=O)[C@H](O)[C@@H]2O)[C@H](O)[C@@H]1O

- IC50 [6]: 100 µM
Compound: C#C[C@H](O[C@@H]1O[C@H](CN)[C@@H](O)[C@H]1O)[C@H]1O[C@@H](n2ccc(=O)[nH]c2=O)[C@H](O)[C@@H]1O

Compound: CCCCCCCCCCCCCCC[C@H](NC(=O)[C@@H](N)CCCNC(=N)N)C(=O)NC[C@@H]1CC2[C@H](C(=O)N1)[C@@H]([C@H]1O[C@@H](n3ccc(=O)[nH]c3=O)[C@H](O)[C@@H]1O)ON2CCCN (single isomer, unassigned)
- MIC (Enterococcus faecium): 16 µg/mL (≈ 18.5 µM)
- MIC (Staphylococcus aureus [1]): > 64 µg/mL
- MIC (Enterococcus faecalis [2]): 32 µg/mL (≈ 37 µM)
- MIC (Staphylococcus aureus [3]): 32 µg/mL (≈ 37 µM)
- MIC (Enterococcus faecalis [4]): 32 µg/mL (≈ 37 µM)

- IC50 (Escherichia coli): 25 µM
Compound: N=C(N)NC[C@H]1O[C@@H](OC[C@H]2O[C@@H](n3ccc(=O)[nH]c3=O)[C@H](O)[C@@H]2O)[C@H](O)[C@@H]1O

- IC50 (Escherichia coli): 425 µM
Compound: NC[C@H]1O[C@@H](O[C@H](CO)[C@H]2O[C@@H](n3ccc(=O)[nH]c3=O)[C@H](O)[C@@H]2O)[C@H](O)[C@@H]1O

- IC50 [5]: 250 µM
Compound: NCCCCCCCCCc1cn(C[C@H](O[C@@H]2O[C@H](CN)[C@@H](O)[C@H]2O)[C@H]2O[C@@H](n3ccc(=O)[nH]c3=O)[C@H](O)[C@@H]2O)nn1
